Assay results as given in PMC7395068, “The evolution of strategies to minimise the risk of human drug-induced liver injury (DILI) in drug discovery and development” (Archives of Toxicology, 2020).
Read-outs that look alike come from different tables or passages of the source.

Legend:
rBsep = settings: In vitro Assay; ref Dawson 2012; cited from earlier work
PHH spheroids = settings: cited from earlier work
hLiMTs [1] = experiment: Combined HCI (HCS) and cellular ATP 3D assay in hLiMTs; settings: for DILI prediction hLiMTs (HCS-MEC): Microtissue model structural based (HCI), combined HCS and ATP, MEC < 25 × Cmax.tot cut-off; for hLiMTs <25x Avg Cmax ATP / hLiMTs <100x Avg Cmaxu ATP: ATP endpoint; for hLiMTs <25x Avg Cmax ATP / hLiMTs <25x Avg Cmax HCS / hLiMTs <25x Avg Cmax All: cut-off <25x Avg Cmax; for hLiMTs <100x Avg Cmaxu ATP / hLiMTs <100x Avg Cmaxu HCS / hLiMTs <100x Avg Cmaxu All: cut-off <100x Avg Cmaxu; for hLiMTs <25x Avg Cmax HCS / hLiMTs <100x Avg Cmaxu HCS: HCS endpoints; for hLiMTs <25x Avg Cmax All: all endpoints (ATP and HCS); for hLiMTs Cmax max All / hLiMTs Cmax min All / hLiMTs <10 uM All / hLiMTs <100x Avg Cmaxu All: all endpoints; for hLiMTs Cmax max All: Cmax max used; for hLiMTs Cmax min All: Cmax min used; for hLiMTs <10 uM All: cut-off <10 uM; for AC50 / minimal effective concentration: Homo sapiens
hLiMTs [2] = settings: cited from earlier work; for hLiMTs ATP <100uM: In vitro Assay, ref Proctor 2017; for hLiMTs/100xCmax, Proctor (2017) / hLiMTs/100uM, Proctor (2017): ATP, ref Proctor et al. 2017; for hLiMTs/100xCmax, Proctor (2017): IC50 < 100 × Cmax.tot; for hLiMTs/100uM, Proctor (2017): IC50 threshold 100 µM
[3] = test system: HepG2 C3A spheroid, BSEP, Glu/Gal in HepG2 cells, bioactivation; settings: cited from earlier work; for Bayesian Machine Learning DILI prediction, Williams (2019): Bayesian modeling, ref Williams et al. 2019; for Bayesian Machine Learning: In vitro Assay, ref Williams 2019
[4] = test system: THLE-Null and THLE-3A4 cells; settings: In vitro Assay; ref Gustafsson 2014; cited from earlier work
HepG2 cells [5] = settings: cited from earlier work; for Cluser analysis / Structural based (HCI): In vitro Assay, ref Persson 2013; for DILI in vitro assay prediction, Persson (2013): Structural based (HCI), HepG2, ref Persson et al. 2013
HepG2 cells [6] = settings: cited from earlier work; for Structural based (HCI): In vitro Assay, ref O'Brien 2006; for DILI in vitro assay prediction, O'Brien (2006): Structural based (HCI), HepG2, ref O'Brien et al. 2006
[7] = test system: HepG2 cells, primary human hepatocytes; settings: In vitro Assay; ref Garside 2014; cited from earlier work
[8] = cited from earlier work; for Assigned DILI category: Chen et al. 2016 or literature alignment, ref Chen et al. 2016
HepaRG spheroids = experiment: Combined HCI (HCS) and cellular ATP 3D assay in HepaRG spheroids; settings: for HepaRG <25x Avg Cmax ATP / HepaRG <100x Avg Cmaxu ATP: ATP endpoint; for HepaRG <25x Avg Cmax ATP / HepaRG <25x Avg Cmax HCS / HepaRG <25x Avg Cmax All: cut-off <25x Avg Cmax; for HepaRG <100x Avg Cmaxu ATP / HepaRG <100x Avg Cmaxu HCS / HepaRG <100x Avg Cmaxu All: cut-off <100x Avg Cmaxu; for HepaRG <25x Avg Cmax HCS / HepaRG <100x Avg Cmaxu HCS: HCS endpoints; for HepaRG <25x Avg Cmax All: all endpoints (ATP and HCS); for HepaRG Cmax max All / HepaRG Cmax min All / HepaRG <10 uM All / HepaRG <100x Avg Cmaxu All: all endpoints; for HepaRG Cmax max All: Cmax max used; for HepaRG Cmax min All: Cmax min used; for HepaRG <10 uM All: cut-off <10 uM; for DILI prediction HepaRG spheroids (HCS-MEC): Microtissue model structural based (HCI), combined HCS and ATP, MEC < 25 × Cmax.tot cut-off; for AC50 / minimal effective concentration: Homo sapiens; for HepaRG <25x Avg Cmax ATP / HepaRG <100x Avg Cmaxu ATP / HepaRG <25x Avg Cmax HCS / HepaRG <100x Avg Cmaxu HCS / HepaRG <25x Avg Cmax All / HepaRG Cmax max All / HepaRG Cmax min All / HepaRG <10 uM All / HepaRG <100x Avg Cmaxu All / AC50 / minimal effective concentration: HepaRG
PHH = settings: cited from earlier work; for PHH/100xCmax, Proctor (2017) / PHH/100uM, Proctor (2017): 2D PHH, ATP, ref Proctor et al. 2017; for PHH/100xCmax, Proctor (2017): IC50 < 100 × Cmax.tot; for PHH/100uM, Proctor (2017): IC50 threshold 100 µM; for PHH ATP <100uM: In vitro Assay, ref Proctor 2017
[9] = plasma free fraction; cited from earlier work
[10] = test system: isolated mouse liver mitochondria; settings: In vitro Assay; ref Porceddu 2012; cited from earlier work
[11] = read-out: Human plasma Cmax; total plasma Cmax.tot, median of 9 literature references; cited from earlier work
[12] = Plasma free fraction (fu) and unbound Cmax (Cmax,u); type: in vitro ADME, human; settings: unbound plasma Cmax
Description: The prediction of DILI severity was evaluated further using the 3D combined HCI assays using plasma-free fraction. The majority of fu values were obtained from literature, when unavailable in-house prediction was utilised. Unbound plasma Cmax concentrations (Cmax,u) were derived by multiplying total plasma Cmax with the corresponding free fraction (fu) for each compound.

[13] = cited from earlier work; for DILI severity category (Chen 2016): human DILI classification, LTKB DILIrank
[14] = test system: primary human hepatocytes, NIH3T3 fibroblasts, BSEP, CYP3A4; settings: cited from earlier work
[15] = ref Chen 2011; cited from earlier work
human hepatocytes = settings: cited from earlier work
[16] = In vitro Assay, ref Schadt 2015

C#CCN(C)Cc1ccccc1 [pargyline]
0.290: fu [9]
1: Assigned DILI category [8]
-ve: hLiMTs <25x Avg Cmax ATP (hLiMTs [1]) | hLiMTs <100x Avg Cmaxu ATP (hLiMTs [1]) | hLiMTs <25x Avg Cmax HCS (hLiMTs [1]) | hLiMTs <100x Avg Cmaxu HCS (hLiMTs [1]) | hLiMTs <25x Avg Cmax All (hLiMTs [1]) | hLiMTs Cmax max All (hLiMTs [1]) | hLiMTs Cmax min All (hLiMTs [1]) | hLiMTs <10 uM All (hLiMTs [1]) | hLiMTs <100x Avg Cmaxu All (hLiMTs [1]) | HepaRG <25x Avg Cmax ATP (HepaRG spheroids) | HepaRG <100x Avg Cmaxu ATP (HepaRG spheroids) | HepaRG <25x Avg Cmax HCS (HepaRG spheroids) | HepaRG <100x Avg Cmaxu HCS (HepaRG spheroids) | HepaRG <25x Avg Cmax All (HepaRG spheroids) | HepaRG Cmax max All (HepaRG spheroids) | HepaRG Cmax min All (HepaRG spheroids) | HepaRG <10 uM All (HepaRG spheroids) | HepaRG <100x Avg Cmaxu All (HepaRG spheroids)
-VE: Inhibition of rBsep cutoff<1& cmax u>.2 (rBsep) | Inhibition of rBsep cutoff<3 (rBsep) | hLiMTs ATP <20 x Cmax (PHH spheroids; In vitro Assay, ref Vorrink 2018) | DILI in vitro assay prediction, Vorrink (2018) (PHH spheroids; PHH spheroids, ATP, 14 days, IC20 < 20 × Cmax.tot, ref Vorrink et al. 2018) | DILI prediction hLiMTs (HCS-MEC) (hLiMTs [1]) | hLiMTs ATP <100uM (hLiMTs [2]) | hLiMTs/100xCmax, Proctor (2017) (hLiMTs [2]) | hLiMTs/100uM, Proctor (2017) (hLiMTs [2]) | Bayesian Machine Learning DILI prediction, Williams (2019) [3] | Bayesian Machine Learning [3] | THLE-Null [4] | THLE-Null/3A4 [4] | Cluser analysis (HepG2 cells [5]) | Structural based (HCI) (HepG2 cells [5]) | DILI in vitro assay prediction, Persson (2013) (HepG2 cells [5]) | Structural based (HCI) (HepG2 cells [6]) | DILI in vitro assay prediction, O'Brien (2006) (HepG2 cells [6]) | In vivo DILI ([8]; ref Dawson 2012) | In vivo DILI ([8]; ref Garside 2014) | In vivo DILI ([8]; ref Gustafsson 2014) | In vivo DILI ([8]; ref O'Brien 2006) | In vivo DILI ([8]; ref Persson 2013) | In vivo DILI ([8]; ref Porceddu 2012) | In vivo DILI ([8]; ref Proctor 2017) | In vivo DILI ([8]; ref Vorrink 2018) | In vivo DILI ([8]; ref Williams 2019) | DILI prediction HepaRG spheroids (HCS-MEC) (HepaRG spheroids) | PHH/100xCmax, Proctor (2017) (PHH) | PHH/100uM, Proctor (2017) (PHH) | PHH ATP <100uM (PHH) | in vitro data EC2<=1x Cmax [10] | in vitro data EC20<=2uM [10]
+VE: Cluster 1-6 +VE Assay [7]
237 nM: Human plasma Cmax,u [12]
819 nM: Cmax [11]

CCc1ccc(CCOc2ccc(CC3SC(=O)NC3=O)cc2)nc1 (centres unmarked) [pioglitazone, reference compound]
39.2 µM: minimal effective concentration (HepaRG spheroids; read-out: HCS endpoint MEC)
67.5 µM: AC50 (HepaRG spheroids; read-out: ATP endpoint AC50)
3: DILI Score (FDA) (1-8) [15]
0.010: fu [9]
9.95 µM: AC50 (hLiMTs [1]; read-out: HCS endpoint AC50)
5.35 µM: minimal effective concentration (hLiMTs [1]; read-out: HCS endpoint MEC)
Less DILI severity: DILI severity category (Chen 2016) ([13]; ref Chen et al. 2016, listed as Pioglitazone)
93.7 µM: AC50 (HepaRG spheroids; read-out: HCS endpoint AC50)
non-DILI potential: in vivo DILI categorisation in the literature ([8]; ref O'Brien et al. 2006, Xu et al. 2008, Dawson et al. 2012, Persson et al. 2013)
-ve: hLiMTs <100x Avg Cmaxu ATP (hLiMTs [1]) | hLiMTs <100x Avg Cmaxu HCS (hLiMTs [1]) | hLiMTs <100x Avg Cmaxu All (hLiMTs [1]) | HepaRG <100x Avg Cmaxu ATP (HepaRG spheroids) | HepaRG <100x Avg Cmaxu HCS (HepaRG spheroids) | HepaRG <10 uM All (HepaRG spheroids) | HepaRG <100x Avg Cmaxu All (HepaRG spheroids)
44.7 µM: minimal effective concentration (HepaRG spheroids; read-out: ATP endpoint MEC)
106 µM: AC50 (hLiMTs [1]; read-out: ATP endpoint AC50)
+ve: hLiMTs <25x Avg Cmax ATP (hLiMTs [1]) | hLiMTs <25x Avg Cmax HCS (hLiMTs [1]) | hLiMTs <25x Avg Cmax All (hLiMTs [1]) | hLiMTs Cmax max All (hLiMTs [1]) | hLiMTs Cmax min All (hLiMTs [1]) | HepaRG <25x Avg Cmax ATP (HepaRG spheroids) | HepaRG <25x Avg Cmax HCS (HepaRG spheroids) | HepaRG <25x Avg Cmax All (HepaRG spheroids) | HepaRG Cmax max All (HepaRG spheroids) | HepaRG Cmax min All (HepaRG spheroids)
-VE: hLiMTs ATP <100uM (hLiMTs [2]) | hLiMTs/100xCmax, Proctor (2017) (hLiMTs [2]) | hLiMTs/100uM, Proctor (2017) (hLiMTs [2]) | THLE-Null [4] | THLE-Null/3A4 [4] | Cellular toxicity (3T3 cells) [14, 16] | GSH adduct HML [14, 16] | MitoTox 3T3 [14, 16] | TDI CYP3A4 [14, 16] | Cluser analysis (HepG2 cells [5]) | DILI in vitro assay prediction, Persson (2013) (HepG2 cells [5]) | DILI in vitro assay prediction, O'Brien (2006) (HepG2 cells [6]) | In vivo DILI ([8]; […]) | In vivo DILI ([8]; ref O'Brien 2006) | In vivo DILI ([8]; ref Persson 2013) | In vivo DILI ([8]; ref Xu 2008) | PHH/100xCmax, Proctor (2017) (PHH) | PHH/100uM, Proctor (2017) (PHH) | PHH ATP <100uM (PHH) | Structural based (HCI) (human hepatocytes; In vitro Assay, ref Xu 2008) | DILI in vitro assay prediction, Xu (2008) (human hepatocytes; Structural based (HCI), human hepatocytes, ref Xu et al. 2008)
Less: DILI severity category (Chen et al. [2016]) ([13]; LTKB DILIrank category, ref Chen et al. 2016) | DILI severity category (Chen 2016) ([13]; ref Chen et al. 2016) | DILI severity category ([13]; human DILI severity, ref Chen et al.)
+VE: Inhibition of rBsep cutoff<1& cmax u>.2 (rBsep) | Inhibition of rBsep cutoff<3 (rBsep) | DILI +VE (5-8), DILI -VE (-4) ([13]; ref Chen 2016) | Bayesian Machine Learning DILI prediction, Williams (2019) [3] | Bayesian Machine Learning [3] | DILI in vitro assay prediction, Schadt (2015) ([14]; BSEP & Metabolism based, ref Schadt et al. 2015) | Combined Assay [14, 16] | Hepatocyte cellular toxicity [14, 16] | hBSEP inhibition [14, 16] | Structural based (HCI) (HepG2 cells [5]) | Structural based (HCI) (HepG2 cells [6]) | Cluster 1-6 +VE Assay [7] | In vivo DILI ([8]; ref Dawson 2012) | In vivo DILI ([8]; ref Garside 2014) | In vivo DILI ([8]; ref Gustafsson 2014) | In vivo DILI ([8]; ref Proctor 2017) | In vivo DILI ([8]; ref Schadt 2015) | In vivo DILI ([8]; ref Williams 2019)
2: Assigned DILI category [8]
in vivo DILI positive: in vivo DILI categorisation in the literature ([8]; ref Garside et al. 2014, Proctor et al. 2017, Gustafsson et al. 2014)
vLess-DILI-Concern: DILI severity category ([13]; ref Chen 2016)
+ve (<10 uM): hLiMTs <10 uM All (hLiMTs [1])
2950 nM: Cmax [11]
+VE (MEC < 25 × Cmax.tot cut-off): DILI prediction hLiMTs (HCS-MEC) (hLiMTs [1]) | DILI prediction HepaRG spheroids (HCS-MEC) (HepaRG spheroids)
38.1 µM: minimal effective concentration (hLiMTs [1]; read-out: ATP endpoint MEC)
29 nM: Human plasma Cmax,u [12]
